Results on ten compounds are retold here after ChEMBL document CHEMBL3603750, “Synthesis and biological evaluation of 9-N-oxamyl sialosides as Siglec-7 ligands” (Bioorg Med Chem, 2015).

Each structure is given as a SMILES string.

The target of the first experiment is T1, Sialic acid-binding Ig-like lectin 7 (Homo sapiens, UniProt Q9Y286). Put plainly: Potency index, ratio of IC50 for compound-1 to IC50 for test compound for binding affinity to human IgG1-fused human Siglec-7-FC (Gln19 to Gly357 residues) assessed as inhibition Siglec-7-Fc binding to RBC pre-incubated for 10 mins before 20 mins incubation with RBCs by flow cytometry.
T1 sequence (Q9Y286 whole entry, the tested form may be a part): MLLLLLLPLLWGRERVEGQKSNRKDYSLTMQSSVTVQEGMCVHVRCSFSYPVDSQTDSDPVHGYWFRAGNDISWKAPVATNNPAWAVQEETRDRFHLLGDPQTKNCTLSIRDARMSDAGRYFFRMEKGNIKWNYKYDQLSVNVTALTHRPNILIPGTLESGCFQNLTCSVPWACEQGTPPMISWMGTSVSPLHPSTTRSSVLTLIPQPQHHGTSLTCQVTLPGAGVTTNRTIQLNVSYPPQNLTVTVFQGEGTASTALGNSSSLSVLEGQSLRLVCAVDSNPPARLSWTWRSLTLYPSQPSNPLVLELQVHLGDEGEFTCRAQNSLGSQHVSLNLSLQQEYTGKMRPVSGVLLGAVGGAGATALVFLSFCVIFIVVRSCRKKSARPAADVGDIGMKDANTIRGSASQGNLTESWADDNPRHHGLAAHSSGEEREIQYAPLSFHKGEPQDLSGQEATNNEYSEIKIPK
For `CCNC(=O)C(=O)NC[C@@H](O)[C@@H](O)[C@@H]1O[C@@](OC)(C(=O)O)C[C@H](O)[C@H]1NC(C)=O`, the Ratio IC50 was < 2.

For `CO[C@]1(C(=O)O)C[C@H](O)[C@@H](NC(C)=O)[C@H]([C@H](O)[C@H](O)CNC(=O)C(=O)Nc2ccccc2)O1`, the Ratio IC50 is 58. Same read-out and setting: under `CO[C@]1(C(=O)O)C[C@H](O)[C@@H](NC(C)=O)[C@H]([C@H](O)[C@H](O)CNC(=O)C(=O)NC(C)(C)C)O1` stands < 2. Turning to `CO[C@]1(C(=O)O)C[C@H](O)[C@@H](NC(C)=O)[C@H]([C@H](O)[C@H](O)CNC(=O)C(=O)NCc2ccccc2)O1`, the Ratio IC50 was found to be 8. For the compound `CCC(C)NC(=O)C(=O)NC[C@@H](O)[C@@H](O)[C@@H]1O[C@@](OC)(C(=O)O)C[C@H](O)[C@H]1NC(C)=O` (mixture of isomers), the Ratio IC50 is < 2.

`CO[C@]1(C(=O)O)C[C@H](O)[C@@H](NC(C)=O)[C@H]([C@H](O)[C@H](O)CO)O1`: the Ratio IC50 stood at 1. In the case of `CO[C@]1(C(=O)O)C[C@H](O)[C@@H](NC(C)=O)[C@H]([C@H](O)[C@H](O)CNC(=O)C(=O)NCc2ccc(-c3ccccc3)cc2)O1`, the Ratio IC50 came to 8. Same read-out and setting: the same measure for `CO[C@]1(C(=O)O)C[C@H](O)[C@@H](NC(C)=O)[C@H]([C@H](O)[C@H](O)CNC(=O)C(N)=O)O1`: 4.1; for `CNC(=O)C(=O)NC[C@@H](O)[C@@H](O)[C@@H]1O[C@@](OC)(C(=O)O)C[C@H](O)[C@H]1NC(C)=O`: < 2.

On to `CO[C@]1(C(=O)O)C[C@H](O)[C@@H](NC(C)=O)[C@H]([C@H](O)[C@H](O)CNC(=O)C(=O)NC(C)C)O1`, for which the Ratio IC50 was < 2.

For another experiment, the target named is T1, Sialic acid-binding Ig-like lectin 7. In words: Binding affinity to human IgG1-fused human Siglec-7-FC (Gln19 to Gly357 residues) assessed as inhibition Siglec-7-Fc binding to RBC pre-incubated for 10 mins before 20 mins incubation with RBCs by flow cytometry. A general note: Flow cytometry measures light scatter and fluorescence of single cells or particles in a stream.
One may read the IC50 as the point on the concentration scale where inhibition reaches its midpoint. Regarding `CO[C@]1(C(=O)O)C[C@H](O)[C@@H](NC(C)=O)[C@H]([C@H](O)[C@H](O)CO)O1`, the concentration for half-maximal inhibition (IC50) worked out at 8.07 mM. Still for that read-out and setting: the same measure for `CO[C@]1(C(=O)O)C[C@H](O)[C@@H](NC(C)=O)[C@H]([C@H](O)[C@H](O)CNC(=O)C(N)=O)O1`: 1.64 mM.
